Source: ChEMBL document CHEMBL1147303, “Antimicrobial tetraprenylphenols from Suillus granulatus” (1989)
≈ marks a conversion by molar mass, not a printed value.

Experiments:
Assay type in all cases: functional
[1] = system: Staphylococcus aureus; assay: Antibacterial activity against Staphylococcus aureus ATCC 25923 by serial broth dilution assay
[2] = system: Micrococcus luteus; assay: Antibacterial activity against Micrococcus luteus ATCC 4698 by paper disc-agar diffusion assay
[3] = system: Escherichia coli; assay: Antibacterial activity against Escherichia coli ATCC 25922 by serial broth dilution assay
[4] = system: Aeromonas hydrophila; assay: Antibacterial activity against Aeromonas hydrophila by serial broth dilution assay
[5] = system: Bacillus subtilis; assay: Antibacterial activity against Bacillus subtilis by serial broth dilution assay
[6] = system: Hafnia alvei; assay: Antibacterial activity against Hafnia alvei by serial broth dilution assay
[7] = system: Proteus mirabilis; assay: Antibacterial activity against Proteus mirabilis by serial broth dilution assay
[8] = system: Enterococcus faecalis; assay: Antibacterial activity against Streptococcus faecalis by serial broth dilution assay

Row | SMILES | MIC [1] | MIC [2] | MIC [3] | MIC [4] | MIC [5] | MIC [6] | MIC [7] | MIC [8]
1 | CC(=O)Oc1c(O)ccc(O)c1C/C=C(\C)CC/C=C(\C)CC/C=C(\C)CCC=C(C)C | > 100 µg/mL | 50 µg/mL (≈ 113 µM) | 50 µg/mL (≈ 113 µM) | > 100 µg/mL | > 100 µg/mL | > 100 µg/mL | > 100 µg/mL | 100 µg/mL (≈ 227 µM)
2 | COc1c(O)cc(O)cc1C/C=C(\C)CC/C=C(\C)CC/C=C(\C)CCC=C(C)C | > 100 µg/mL | 6.25 µg/mL (≈ 15.1 µM) | 1.56 µg/mL (≈ 3.78 µM) | 0.78 µg/mL (≈ 1.89 µM) | > 100 µg/mL | > 100 µg/mL | > 100 µg/mL | > 100 µg/mL
3 | CC(=O)Oc1c(O)cc(O)cc1C/C=C(\C)CC/C=C(\C)CC/C=C(\C)CCC=C(C)C | > 100 µg/mL | 50 µg/mL (≈ 113 µM) | 6.25 µg/mL (≈ 14.2 µM) | 12.5 µg/mL (≈ 28.4 µM) | > 100 µg/mL | > 100 µg/mL | > 100 µg/mL | > 100 µg/mL
4 | COc1ccc(O)c(O)c1C/C=C(\C)CC/C=C(\C)CC/C=C(\C)CCC=C(C)C | > 100 µg/mL | 100 µg/mL (≈ 242 µM) | > 100 µg/mL | > 100 µg/mL | > 100 µg/mL | > 100 µg/mL | > 100 µg/mL | > 100 µg/mL
5 | CC(C)=CCC/C(C)=C/CC/C(C)=C/CCC1(C)C=Cc2c(ccc(O)c2O)O1 (stereo not given) | > 100 µg/mL | > 100 µg/mL | > 100 µg/mL | > 100 µg/mL | > 100 µg/mL | > 100 µg/mL | > 100 µg/mL | > 100 µg/mL
